In this experiment the target is T1, BRD4 proteins (Homo sapiens, UniProt O60885).
T1 construct: endogenous in cells; host or cells: MM.1S
In words: Degradation of BRD4 protein in MM.1S cell lines (Western blot densitometry). The note with it: MM.1S cells, 10 μM, 24 hours. It counts as cell-based. In a few lines:
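MM.1S cells in RPMI-1640 with 10% FBS were treated with each degrader at 10 μM for 24 h. RIPA lysates were analysed by SDS-PAGE/Western blot with β-actin as reference, and BRD4 band densitometry was scored as reduction <40% (+), 40-<70% (++) or ≥70% (+++).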
In general terms: Immunoblotting shows a protein as a band on a membrane.

Turning to `COC(=O)c1ccc(C(=O)N2CC3(CN(C(=O)C[C@@H]4N=C(c5ccc(Cl)cc5)c5c(sc(C)c5C)-n5c(C)nnc54)C3)C2)cc1C#CCN` [5-41′, methyl (S)-2-(3-aminoprop-1-yn-1-yl)-4-(6-(2-(4-(4-chlorophenyl)-2,3,9-trimethyl-6H-thieno[3,2-f][1,2,4]triazolo[4,3-a][1,4]diazepin-6-yl)acetyl)-2,6-diazaspiro[3.3]heptane-2-carbonyl)benzoate trifluoroacetic acid], the “BRD4 degrading capacity (%)” value is reported as “+++ (the degrading capacity was reduced by 70% or more)”.

On to `Cc1sc2c(c1C)C(c1ccc(Cl)cc1)=N[C@@H](CC(=O)NCCCCNC(=O)c1ccc(C#CCN)o1)c1nnc(C)n1-2.Cl` [4-149′], for which the “BRD4 degrading capacity (%)” value is reported as “+++ (the degrading capacity was reduced by 70% or more)”.

In the case of `COC(=O)c1ccc(N(C)C(=O)C2CCN(C(=O)C[C@@H]3N=C(c4ccc(Cl)cc4)c4c(sc(C)c4C)-n4c(C)nnc43)CC2)cc1C#CCN` [5-152′, methyl (S)-2-(3-aminoprop-1-yn-1-yl)-4-(1-(2-(4-(4-chlorophenyl)-2,3,9-trimethyl-6H-thieno[3,2-f][1,2,4]triazolo[4,3-a][1,4]diazepin-6-yl)acetyl)-N-methylpiperidine-4-carboxamido)benzoate trifluoroacetic acid], the “BRD4 degrading capacity (%)” value was “+++ (the degrading capacity was reduced by 70% or more)”.

In the case of `Cc1sc2c(c1C)C(c1ccc(Cl)cc1)=N[C@@H](CC(=O)Nc1cccc(C#CC(N)CO)c1)c1nnc(C)n1-2.Cl` (stereo partly drawn) [3-51′, N-(3-(3-amino-4-hydroxybut-1-yn-1-yl)phenyl)-2-((S)-4-(4-chlorophenyl)-2,3,9-trimethyl-6H-thieno[3,2-f][1,2,4]triazolo[4,3-a][1,4]diazepin-6-yl)acetamide hydrochloride], the “BRD4 degrading capacity (%)” value is “+++ (the degrading capacity was reduced by 70% or more)”.

With `Cc1sc2c(c1C)C(c1ccc(Cl)cc1)=N[C@@H](CC(=O)N1CCN(C(=O)c3ccc(C#CCN)o3)CC1)c1nnc(C)n1-2.Cl` [4-227′, (S)-1-(4-(5-(3-aminoprop-1-yn-1-yl)furan-2-carbonyl)piperazin-1-yl)-2-(4-(4-chlorophenyl)-2,3,9-trimethyl-6H-thieno[3,2-f][1,2,4]triazolo[4,3-a][1,4]diazepin-6-yl)ethan-1-one hydrochloride], the “BRD4 degrading capacity (%)” value is reported as “++ (the degrading capacity was reduced by 40% to 70% (exclusive of 70))”.

As to `COC(=O)c1ccc(C(=O)N(C)C2CCN(C(=O)C[C@@H]3N=C(c4ccc(Cl)cc4)c4c(sc(C)c4C)-n4c(C)nnc43)CC2)cc1C#CCN` [5-153′, methyl (S)-2-(3-aminoprop-1-yn-1-yl)-4-((1-(2-(4-(4-chlorophenyl)-2,3,9-trimethyl-6H-thieno[3,2-f][1,2,4]triazolo[4,3-a][1,4]diazepin-6-yl)acetyl)piperidin-4-yl)(methyl)carbamoyl)benzoate trifluoroacetic acid], the “BRD4 degrading capacity (%)” value was “+++ (the degrading capacity was reduced by 70% or more)”.

Turning to `Cc1sc2c(c1C)C(c1ccc(Cl)cc1)=N[C@@H](CC(=O)NCCCC(=O)Nc1ccc(C(N)=O)c(C#CCN)c1)c1nnc(C)n1-2.Cl` [5-59′, (S)-2-(3-aminoprop-1-yn-1-yl)-4-(4-(2-(4-(4-chlorophenyl)-2,3,9-trimethyl-6H-thieno[3,2-f][1,2,4]triazolo[4,3-a][1,4]diazepin-6-yl)acetamido)butanamido)benzamide hydrochloride], the “BRD4 degrading capacity (%)” value was “+++ (the degrading capacity was reduced by 70% or more)”.

`Cc1sc2c(c1C)C(c1ccc(Cl)cc1)=N[C@@H](CC(=O)NCCCCC(=O)Nc1cccc(C#CCN)c1)c1nnc(C)n1-2.Cl` [4-164′, (S)—N-(3-(3-aminoprop-1-yn-1-yl)phenyl)-5-(2-(4-(4-chlorophenyl)-2,3,9-trimethyl-6H-thieno[3,2-f][1,2,4]triazolo[4,3-a][1,4]diazepin-6-yl)acetamido)pentanamide hydrochloride]: the “BRD4 degrading capacity (%)” value was “++ (the degrading capacity was reduced by 40% to 70% (exclusive of 70))”.

`COC(=O)c1ccc(N2CC3CN(C(=O)C[C@@H]4N=C(c5ccc(Cl)cc5)c5c(sc(C)c5C)-n5c(C)nnc54)CC3C2)cc1C#CCN` (stereo partly drawn) [5-44′, methyl 2-(3-aminoprop-1-yn-1-yl)-4-(5-(2-((S)-4-(4-chlorophenyl)-2,3,9-trimethyl-6H-thieno[3,2-f][1,2,4]triazolo[4,3-a][1,4]diazepin-6-yl)acetyl)hexahydropyrrolo[3,4-c]pyrrol-2(1H)-yl)benzoate trifluoroacetic acid]: the “BRD4 degrading capacity (%)” value is “++ (the degrading capacity was reduced by 40% to 70% (exclusive of 70))”.

On to `COC(=O)c1ccc(N2CCN(CC3CCN(C(=O)C[C@@H]4N=C(c5ccc(Cl)cc5)c5c(sc(C)c5C)-n5c(C)nnc54)CC3)CC2)cc1C#CCN.Cl` [5-29′, methyl (S)-2-(3-aminoprop-1-yn-1-yl)-4-(4-((1-(2-(4-(4-chlorophenyl)-2,3,9-trimethyl-6H-thieno[3,2-f][1,2,4]triazolo[4,3-a][1,4]diazepin-6-yl)acetyl)piperidin-4-yl)methyl)piperazin-1-yl)benzoate hydrochloride], for which the “BRD4 degrading capacity (%)” value is “+++ (the degrading capacity was reduced by 70% or more)”.

As to `COC(=O)c1ccc(NC(=O)CCCC(=O)OCC[C@@H]2N=C(c3ccc(Cl)cc3)c3c(sc(C)c3C)-n3c(C)nnc32)cc1C#CCN.Cl` [5-106′, methyl (S)-2-(3-aminoprop-1-yn-1-yl)-4-(5-(2-(4-(4-chlorophenyl)-2,3,9-trimethyl-6H-thieno[3,2-f][1,2,4]triazolo[4,3-a][1,4]diazepin-6-yl)ethoxy)-5-oxopentanamido)benzoate hydrochloride], the “BRD4 degrading capacity (%)” value is given as “+ (the degrading capacity of each BRD4 degrader was reduced by less than 40%)”.

On to `COC(=O)c1cc(C#CCN)cc(NC(=O)CCCNC(=O)C[C@@H]2N=C(c3ccc(Cl)cc3)c3c(sc(C)c3C)-n3c(C)nnc32)c1.Cl` [5-89′, methyl (S)-3-(3-aminoprop-1-yn-1-yl)-5-(4-(2-(4-(4-chlorophenyl)-2,3,9-trimethyl-6H-thieno[3,2-f][1,2,4]triazolo[4,3-a][1,4]diazepin-6-yl)acetamido)butanamido)benzoate hydrochloride], for which the “BRD4 degrading capacity (%)” value is reported as “+ (the degrading capacity of each BRD4 degrader was reduced by less than 40%)”.

As for `COC(=O)c1ccc(C#CCN)cc1NC(=O)CCCNC(=O)C[C@@H]1N=C(c2ccc(Cl)cc2)c2c(sc(C)c2C)-n2c(C)nnc21.Cl` [5-90′, methyl (S)-4-(3-aminoprop-1-yn-1-yl)-2-(4-(2-(4-(4-chlorophenyl)-2,3,9-trimethyl-6H-thieno[3,2-f][1,2,4]triazolo[4,3-a][1,4]diazepin-6-yl)acetamido)butanamido)benzoate hydrochloride], the “BRD4 degrading capacity (%)” value was “+++ (the degrading capacity was reduced by 70% or more)”.

Turning to `Cc1sc2c(c1C)C(c1ccc(Cl)cc1)=N[C@@H](CC(=O)NCCC(=O)Nc1ccc(C#CCN)c(CO)c1)c1nnc(C)n1-2.Cl` [4-125′, (S)—N-(4-(3-aminoprop-1-yn-1-yl)-3-(hydroxymethyl)phenyl)-3-(2-(4-(4-chlorophenyl)-2,3,9-trimethyl-6H-thieno[3,2-f][1,2,4]triazolo[4,3-a][1,4]diazepin-6-yl)acetamido)propanamide hydrochloride], the “BRD4 degrading capacity (%)” value is “+++ (the degrading capacity was reduced by 70% or more)”.

On to `Cc1sc2c(c1C)C(c1ccc(Cl)cc1)=N[C@@H](CCOC(=O)CCCCCCCCCC(=O)Nc1cccc(C#CCN)c1)c1nnc(C)n1-2.Cl` [5-109′, (S)-2-(4-(4-chlorophenyl)-2,3,9-trimethyl-6H-thieno[3,2-f][1,2,4]triazolo[4,3-a][1,4]diazepin-6-yl)ethyl 11-((3-(3-aminoprop-1-yn-1-yl)phenyl)amino)-11-oxoundecanoate hydrochloride], for which the “BRD4 degrading capacity (%)” value is reported as “+++ (the degrading capacity was reduced by 70% or more)”.

In the case of `Cc1sc2c(c1C)C(c1ccc(Cl)cc1)=N[C@@H](CC(=O)NCCCC(=O)Nc1ccc(C(F)(F)F)c(C#CCN)c1)c1nnc(C)n1-2.Cl` [5-75′, (S)—N-(3-(3-aminoprop-1-yn-1-yl)-4-(trifluoromethyl)phenyl)-4-(2-(4-(4-chlorophenyl)-2,3,9-trimethyl-6H-thieno[3,2-f][1,2,4]triazolo[4,3-a][1,4]diazepin-6-yl)acetamido)butanamide hydrochloride], the “BRD4 degrading capacity (%)” value is reported as “+++ (the degrading capacity was reduced by 70% or more)”.

Take `Cc1sc2c(c1C)C(c1ccc(Cl)cc1)=N[C@@H](CC(=O)NCCCC(=O)Nc1ccc(-c3cnc(C(F)(F)F)nc3)c(C#CCN)c1)c1nnc(C)n1-2.Cl` [5-81′, (S)—N-(3-(3-aminoprop-1-yn-1-yl)-4-(2-(trifluoromethyl)pyrimidin-5-yl)phenyl)-4-(2-(4-(4-chlorophenyl)-2,3,9-trimethyl-6H-thieno[3,2-f][1,2,4]triazolo[4,3-a][1,4]diazepin-6-yl)acetamido)butanamide hydrochloride]: the “BRD4 degrading capacity (%)” value is “+++ (the degrading capacity was reduced by 70% or more)”.

In the case of `Cc1sc2c(c1C)C(c1ccc(Cl)cc1)=N[C@@H](CC(=O)NCCCC(=O)Nc1ccc(F)c(C#CCN)c1)c1nnc(C)n1-2.Cl` [5-77′, (S)—N-(3-(3-aminoprop-1-yn-1-yl)-4-fluorophenyl)-4-(2-(4-(4-chlorophenyl)-2,3,9-trimethyl-6H-thieno[3,2-f][1,2,4]triazolo[4,3-a][1,4]diazepin-6-yl)acetamido)butanamide hydrochloride], the “BRD4 degrading capacity (%)” value is “+ (the degrading capacity of each BRD4 degrader was reduced by less than 40%)”.

For `Cc1sc2c(c1C)C(c1ccc(Cl)cc1)=N[C@@H](CC(=O)NCCCCCNC(=O)c1ccc(C#CCN)o1)c1nnc(C)n1-2.Cl` [4-167′, (S)-5-(3-aminoprop-1-yn-1-yl)-N-(5-(2-(4-(4-chlorophenyl)-2,3,9-trimethyl-6H-thieno[3,2-f][1,2,4]triazolo[4,3-a][1,4]diazepin-6-yl)acetamido)pentyl)furan-2-carboxamide hydrochloride], the “BRD4 degrading capacity (%)” value is “++ (the degrading capacity was reduced by 40% to 70% (exclusive of 70))”.
